Positions count from the first letter of the chain named. pEC50: −log10 of the molar value.
What was measured:
Experiment in all cases: Fluo-4 calcium assay, HEK293T + Galpha16gust44
Format in all cases: cell-based
hTAS2R16 (ssr3-hTAS2R16) [1] = target: T1, hTAS2R16 (ssr3-hTAS2R16) (Homo sapiens, UniProt Q9NYV7, F240W)
T1 sequence (Q9NYV7 1-291 F240W): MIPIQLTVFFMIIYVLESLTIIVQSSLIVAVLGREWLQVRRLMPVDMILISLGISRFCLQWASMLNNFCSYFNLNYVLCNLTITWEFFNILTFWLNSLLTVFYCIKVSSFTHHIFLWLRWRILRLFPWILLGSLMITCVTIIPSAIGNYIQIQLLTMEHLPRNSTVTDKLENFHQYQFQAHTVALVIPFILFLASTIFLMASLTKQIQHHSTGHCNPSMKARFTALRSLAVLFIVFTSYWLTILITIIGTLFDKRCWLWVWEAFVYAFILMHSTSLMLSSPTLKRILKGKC

hTAS2R16 (ssr3-hTAS2R16) [2] = target: T2, hTAS2R16 (ssr3-hTAS2R16) (Homo sapiens, UniProt Q9NYV7, Q177N)
T2 sequence (Q9NYV7 1-291 Q177N): T1 sequence (Q9NYV7 1-291 F240W) with Q177N, W240F

hTAS2R16 (ssr3-hTAS2R16) [3] = target: T3, hTAS2R16 (ssr3-hTAS2R16) (Homo sapiens, UniProt Q9NYV7)
T3 sequence (Q9NYV7 1-291): T1 sequence (Q9NYV7 1-291 F240W) with W240F

hTAS2R16 (ssr3-hTAS2R16) [4] = target: T4, hTAS2R16 (ssr3-hTAS2R16) (Homo sapiens, UniProt Q9NYV7, F93A)
T4 sequence (Q9NYV7 1-291 F93A): T1 sequence (Q9NYV7 1-291 F240W) with F93A, W240F

hTAS2R16 (ssr3-hTAS2R16) [5] = target: T5, hTAS2R16 (ssr3-hTAS2R16) (Homo sapiens, UniProt Q9NYV7, I243V)
T5 sequence (Q9NYV7 1-291 I243V): T1 sequence (Q9NYV7 1-291 F240W) with W240F, I243V

hTAS2R16 (ssr3-hTAS2R16) [6] = target: T6, hTAS2R16 (ssr3-hTAS2R16) (Homo sapiens, UniProt Q9NYV7, F93L)
T6 sequence (Q9NYV7 1-291 F93L): T1 sequence (Q9NYV7 1-291 F240W) with F93L, W240F

hTAS2R16 (ssr3-hTAS2R16) [7] = target: T7, hTAS2R16 (ssr3-hTAS2R16) (Homo sapiens, UniProt Q9NYV7, I243L)
T7 sequence (Q9NYV7 1-291 I243L): T1 sequence (Q9NYV7 1-291 F240W) with W240F, I243L

hTAS2R16 (ssr3-hTAS2R16) [8] = target: T8, hTAS2R16 (ssr3-hTAS2R16) (Homo sapiens, UniProt Q9NYV7, H181L)
T8 sequence (Q9NYV7 1-291 H181L): T1 sequence (Q9NYV7 1-291 F240W) with H181L, W240F

- pEC50 (hTAS2R16 (ssr3-hTAS2R16) [1]): 2.69
- pEC50 (hTAS2R16 (ssr3-hTAS2R16) [2]): 3.41
- pEC50 (hTAS2R16 (ssr3-hTAS2R16) [3]): 3.66
- pEC50 (hTAS2R16 (ssr3-hTAS2R16) [4]): 1.94
- pEC50 (hTAS2R16 (ssr3-hTAS2R16) [5]): 3.08
- pEC50 (hTAS2R16 (ssr3-hTAS2R16) [6]): 2.38
- pEC50 (hTAS2R16 (ssr3-hTAS2R16) [7]): 3.30
- pEC50 (hTAS2R16 (ssr3-hTAS2R16) [8]): 1.89
Structure (SMILES): OCc1ccccc1O[C@@H]1O[C@H](CO)[C@@H](O)[C@H](O)[C@H]1O [salicin]

— article PMC2934701 (The Journal of Biological Chemistry, 2010)
